Results as given in paper PMC11123956, “Nobiletin Stimulates Adrenal Hormones and Modulates the Circadian Clock in Mice” (Nutrients, 2024).

Tests used:
PDE2A = target: T1, PDE2A (Homo sapiens, UniProt O00408); assay: PDE enzyme  assay, PDE2A; format: biochemical
T1 construct: purchased Eurofins Panlabs Discovery Services Taiwan, Ltd. (contract assay); host or cells: insect Sf9 cells
Experimental: Enzyme assays for various subtypes of PDE (Table 1 and Figure 4) were conducted by Eurofins Panlabs Discovery Services Taiwan, Ltd. (New Taipei City, Taiwan). In the assays, five or six concentrations of nobiletin over five or six orders of magnitude were examined in experiments conducted in duplicate to determine the IC50 (concentration of nobiletin exerting half-maximal inhibition of control-specific activity). IC50 values were determined by nonlinear least squares regression analysis using MathIQTM (ID Business Solutions Ltd., Woking, UK). FAM-cAMP, FAM-cGMP (0.1 μM), and 100 μM [^3H]cGMP + cGMP were used for the substrate in the human recombinant insect Sf9 cells or Bovine retinal rod outer segments depending on the PDE subtype. The spectrofluorometric quantitation of fluorescein-AMP-IMAP, fluorescein-GMP-IMAP, or [^3H] guanosine was used depending on the PDE subtype. A known […] of each PDE was used as the positive control.

Bmal1 mRNA = assay: Real-time RT-PCR of Bmal1 mRNA in peripheral tissues; format: in vivo, mice; conditions: after a single treatment
Experimental: Male C57BL/6J mice (7 weeks old) were purchased from Charles River Japan (Kanagawa, Japan) and used for the serum hormone assay and RT-PCR. Male ICR mice were purchased from Tokyo Laboratory Animals Science Co., Ltd. (Tokyo, Japan), and female PERIOD2::LUCIFERASE (PER2::LUC) knock-in mice (ICR background) bred at Waseda University were used for blood glucose measurements and in vivo imaging assays, respectively. The mice were all housed under conditions of controlled temperature (23 °C ± 3 °C), humidity (50% ± 20%), and lighting (lights on from 07:00 to 19:00 at Taisho Pharmaceutical Co., Ltd. or from 08:00 to 20:00 at Waseda University). In the 24 h cycle, Zeitgeber time 0 (ZT0) was designated as the time when the lights were turned on, and ZT12 was designated as the time when the lights were turned off. All the mice were given access to food and tap water ad libitum, and nobiletin (10–100 mg/kg; purchased from FUJIFILM Wako Pure Chemical Corporation, Osaka, Japan) was administered by intraperitoneal (i.p.) injection in the vehicle (10 mL/kg body weight) containing 0.5% carboxymethyl cellulose (CMC). Rolipram (PDE4 inhibitor, FUJIFILM Wako Pure Chemical Corporation) and SR1078 (RORα/γ agonist, FUJIFILM Wako Pure Chemical Corporation) were also used for the experiment at 10 mg/kg in 0.5% CMC [12]. Mice were euthanized by rapid decapitation for whole blood samples.
Figure 3 Nobiletin stimulated adrenaline and corticosterone secretion, and induced acute clock gene expression changes. (A–C) Mice received intraperitoneal injections of control (0.5% CMC) or nobiletin (10 or 100 mg/kg) at ZT3. (A) Serum corticosterone at 1 h after treatment (n = 6 in each). $$$ p < 0.001 by Tukey’s multiple comparisons test. (B) Serum corticosterone and adrenaline at 1, 2, and 4 h after treatment (n = 4 in each). # p < 0.05 vs. control at each time point by Mann–Whitney test; ** p < 0.01 vs. control at each time point by Student’s t-test. (C) Blood glucose changes after treatment (n = 9 in each). Statistics of 2-way repeated ANOVA are indicated on the graph. […]

T1 sequence (O00408 whole entry): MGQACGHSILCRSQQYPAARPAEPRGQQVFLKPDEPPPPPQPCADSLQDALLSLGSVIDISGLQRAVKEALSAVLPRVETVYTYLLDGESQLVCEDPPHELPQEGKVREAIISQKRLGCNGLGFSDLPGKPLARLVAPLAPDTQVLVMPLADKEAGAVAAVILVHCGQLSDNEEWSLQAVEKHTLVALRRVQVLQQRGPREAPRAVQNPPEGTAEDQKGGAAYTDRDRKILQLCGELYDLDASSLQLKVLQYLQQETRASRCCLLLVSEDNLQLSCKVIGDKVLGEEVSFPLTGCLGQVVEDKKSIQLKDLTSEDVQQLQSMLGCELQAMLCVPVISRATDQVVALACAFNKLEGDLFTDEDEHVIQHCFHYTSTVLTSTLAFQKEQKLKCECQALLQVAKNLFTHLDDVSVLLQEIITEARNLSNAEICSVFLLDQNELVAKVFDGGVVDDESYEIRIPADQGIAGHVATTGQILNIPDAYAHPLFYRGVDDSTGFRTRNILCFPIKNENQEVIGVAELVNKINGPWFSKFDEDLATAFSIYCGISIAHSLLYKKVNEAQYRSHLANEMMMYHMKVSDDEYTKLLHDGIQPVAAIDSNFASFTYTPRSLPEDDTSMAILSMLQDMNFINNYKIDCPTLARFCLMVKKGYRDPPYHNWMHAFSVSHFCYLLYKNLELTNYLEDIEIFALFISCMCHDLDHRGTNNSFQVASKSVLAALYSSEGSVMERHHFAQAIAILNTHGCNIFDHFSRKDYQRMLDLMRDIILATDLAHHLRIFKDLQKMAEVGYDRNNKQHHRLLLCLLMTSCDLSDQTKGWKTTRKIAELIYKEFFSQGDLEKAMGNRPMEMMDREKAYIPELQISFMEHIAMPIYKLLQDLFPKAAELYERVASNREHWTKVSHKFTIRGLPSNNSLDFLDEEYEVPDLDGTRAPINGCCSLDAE

For COc1ccc(-c2cc(=O)c3c(OC)c(OC)c(OC)c(OC)c3o2)cc1OC [nobiletin], the IC50 (PDE2A) was 9.91 µM and the Bmal1 expression (Bmal1 mRNA) was “did not change significantly”.
